Experimental data taken from ChEMBL document CHEMBL1151480, “Endiandric Acid Analogues from the Roots of Beilschmiedia erythrophloia” (2009).
≈ marks a conversion by molar mass, not a printed value. Calls of active or inactive are those of the source. No cut-off for these calls is given here.

Tests used:
[1] = system: P388; experiment: Growth inhibition of mouse P388 cells; assay type: functional, cell-based
[2] = system: Mycobacterium tuberculosis; experiment: Antitubercular activity against Mycobacterium tuberculosis H37Rv after 2 weeks by proportion method; assay type: functional; conditions: 336 h

| Compound | growth inhibition (GI) [1] | MIC [2] |
| --- | --- | --- |
| C=C1CC[C@H]2O[C@]2(C)[C@H](O)C[C@@H]2[C@@H]1CC2(C)C [SUBEROSOL B] | Active | 28.9 µg/mL (≈ 122 µM) |
| COC(=O)[C@@H]1C=C[C@@H]2C[C@H]3[C@H](CCCCCCCc4ccccc4)[C@H]4C=C[C@@H]1[C@@H]2[C@H]43 [ERYTHROPHLOIN C] | – | 50 µg/mL (≈ 124 µM) |
| CC[C@@H](CO)NCCN[C@@H](CC)CO [ETHAMBUTOL] | – | 6.25 µg/mL (≈ 30.6 µM) |
